From US20100041892A1, “Therapeutic agent for diabetes” (priority 2005, published 2010)

Row | melting point | SMILES
1 | 153 to 155 °C | CCCCCNS(=O)(=O)NC(=O)OCc1ccc(OCCOC)cc1Oc1ncc(C(F)(F)F)cc1Cl [Example 61, 2-{[3-chloro-5-(trifluoromethyl)pyridin-2-yl]oxy}-4-(2-methoxyethoxy)benzyl [(pentylamino)sulfonyl]carbamate]
2 | 70 to 73 °C | CCCCCS(=O)(=O)NC(=O)OCc1ccc(OC(C)C)cc1Oc1ncc(C(F)(F)F)cc1Cl [Example 63, 2-{[3-chloro-5-(trifluoromethyl)pyridin-2-yl]oxy}-4-isopropoxybenzyl (pentylsulfonyl)carbamate]
3 | 112 to 115 °C | COCCOc1ccc(COC(=O)NS(=O)(=O)c2ccc(Cl)cc2)c(Oc2ncc(C(F)(F)F)cc2Cl)c1 [Example 65, 2-{[3-chloro-5-(trifluoromethyl)pyridin-2-yl]oxy}-4-(2-methoxyethoxy)benzyl [(4-chlorophenyl)sulfonyl]carbamate]
4 | 164 to 165 °C | CCCCNS(=O)(=O)NC(=O)OCc1ccc(OCCOC)cc1Oc1ncc(C(F)(F)F)cc1Cl [Example 66, 2-{[3-chloro-5-(trifluoromethyl)pyridin-2-yl]oxy}-4-(2-methoxyethoxy)benzyl [(butylamino)sulfonyl]carbamate]
5 | 150 to 150.5 °C | COCCOc1ccc(COC(=O)NS(=O)(=O)NCC2CC2)c(Oc2ncc(C(F)(F)F)cc2Cl)c1 [Example 67, 2-{[3-chloro-5-(trifluoromethyl)pyridin-2-yl]oxy}-4-(2-methoxyethoxy)benzyl {[(cyclopropylmethyl)amino]sulfonyl}carbamate]
6 | 159 °C (dec.) | COCCOc1ccc(COC(=O)NS(=O)(=O)Nc2ccc(Cl)cc2)c(Oc2ncc(C(F)(F)F)cc2Cl)c1 [Example 68, 2-{[3-chloro-5-(trifluoromethyl)pyridin-2-yl]oxy}-4-(2-methoxyethoxy)benzyl {[(4-chlorophenyl)amino]sulfonyl}carbamate]
7 | 158 to 159 °C | COCCOc1ccc(CCC(=O)NS(N)(=O)=O)c(Oc2ncc(C(F)(F)F)cc2Cl)c1 [Example 73, N-(aminosulfonyl)-3-[2-{[3-chloro-5-(trifluoromethyl)pyridin-2-yl]oxy}-4-(2-methoxyethoxy)phenyl]propanamide]
8 | 96 to 97 °C | CCCCCS(=O)(=O)NC(=O)CCCc1ccc(OCCOC)cc1Oc1ncc(C(F)(F)F)cc1Cl [Example 74, 4-[2-{[3-chloro-5-(trifluoromethyl)pyridin-2-yl]oxy}-4-(2-methoxyethoxy)phenyl]-N-(pentylsulfonyl)butanamide]
9 | 149 to 149.5 °C | COCCCNS(=O)(=O)NC(=O)OCc1ccc(OCCOC)cc1Oc1ncc(C(F)(F)F)cc1Cl [Example 75, 2-{[3-chloro-5-(trifluoromethyl)pyridin-2-yl]oxy}-4-(2-methoxyethoxy)benzyl {[(3-methoxypropyl)amino]sulfonyl}carbamate]
10 | 142.5 to 143 °C | CCOCCNS(=O)(=O)NC(=O)OCc1ccc(OCCOC)cc1Oc1ncc(C(F)(F)F)cc1Cl [Example 76, 2-{[3-chloro-5-(trifluoromethyl)pyridin-2-yl]oxy}-4-(2-methoxyethoxy)benzyl {[(2-ethoxyethyl)amino]sulfonyl}carbamate]
11 | 136.9 to 137.1 °C | CCCCCS(=O)(=O)NC(=O)CC(C)c1ccc(OCCOC)cc1Oc1ncc(C(F)(F)F)cc1Cl (stereo not drawn) [Example 77, 3-[2-{[3-chloro-5-(trifluoromethyl)pyridin-2-yl]oxy}-4-(2-methoxyethoxy)phenyl]-N-(pentylsulfonyl)butanamide]

Row | SMILES | melting point
12 | CCCCCS(=O)(=O)NC(=O)OCc1ccc(OCCCC)cc1Oc1ncc(C(F)(F)F)cc1Cl [Example 62, 4-butoxy-2-{[3-chloro-5-(trifluoromethyl)pyridin-2-yl]oxy}benzyl (pentylsulfonyl)carbamate] | 124.5 to 125.5 °C
